In publication PMC8952293, “A Histone Deacetylase (HDAC) Inhibitor with Pleiotropic In Vitro Anti-Toxoplasma and Anti-Plasmodium Activities Controls Acute and Chronic Toxoplasma Infection in Mice” (International Journal of Molecular Sciences, 2022):

How the values were obtained:
[1] = Stability of the radiolabeled compound in the medium; assay type: physicochemical; conditions: corn oil with 5% DMSO
Procedure: (§1) An isotopic exchange was performed to obtain the radiolabeled iodinated JF363. Briefly, 2 mg of the iodinated molecule was incubated in acetone with 3 mg of cold Na127I and 55.5 MBq of radioactive Na125I (PerkinElmer) for 1 h at 95 °C in a heat block. After evaporation of acetone, the radiotracer was solubilized in corn oil; 5% DMSO was also added to mimic the previous conditions. Quality controls were performed by TLC.

[2] = SPECT/CT imaging of the iodine-125 radiotracer in infected mice; assay type: in vivo, mouse
Procedure: as §1
Three female CD1 mice (31.7 ± 1.3 g; Janvier Labs, Le Genest-Saint-Isle, France) and two female mice infected with T. gondii obtained as previously described (19.5 ± 2.1 g) were studied. The previous study gave the radiotracer by oral gavage (administered dose: 0.73 ± 0.25 MBq/g). Before imaging, mice were anesthetized using isoflurane (2% in a mixture of air: O2) and positioned in a thermostatic bed. Whole-body single-photon emission computerized tomography/computed tomography (SPECT/CT) acquisitions were performed 0.5, 3.5, and 24 h after injection using a dedicated system (nanoSPECT-CT; Mediso, Budapest, Hungary). First, CT and SPECT acquisitions were reconstructed and fused using Nucline software (Mediso, Budapest, Hungary). This fusion allowed drawing a volume of interest (VOI in cm^3) on selected/visible organs, and SPECT quantification based on CT was then performed using VivoQuant (InviCRO, Boston, MA, USA). Results were expressed in %ID/cm^3 or %ID/g (percentage of injected dose per cubic centimeter or gram of tissue).

Toxoplasma = system: Toxoplasma; design: method as in PMID 22712598; conditions: primary drug used to treat toxoplasmosis; cited from earlier work
Toxoplasma gondii = system: Toxoplasma gondii; design: method as in PMID 20713670; conditions: cited from earlier work

In the case of `COc1cc(CC(=O)Nc2ccc(C(=O)NO)cc2)ccc1I` [iodo-JF363], the “stability in the medium” value [1] is reported as “good up to 72 h”, the SPECT quantification ([2]; Bladder, infected mouse #2, 0.5 h pi) is reported as 5.5 %DI/cm^3 and the SPECT quantification ([2]; Bladder, infected mouse #2, 3.5 h pi) is reported as 19.1 %DI/cm^3. The SPECT quantification ([2]; Bladder, infected mouse #2, 24 h pi) was 0.6 %DI/cm^3, the SPECT quantification ([2]; Bladder, infected mouse #3, 0.5 h pi) was 6.4 %DI/cm^3 and the SPECT quantification ([2]; Bladder, infected mouse #3, 3.5 h pi) was 8.2 %DI/cm^3. It also gave an SPECT quantification ([2]; Bladder, infected mouse #3, 24 h pi) of 3.9 %DI/cm^3, an SPECT quantification ([2]; Heart, infected mouse #2, 0.5 h pi) of 3.1 %DI/cm^3 and an SPECT quantification ([2]; Heart, infected mouse #2, 3.5 h pi) of 2.1 %DI/cm^3. It also gave an SPECT quantification ([2]; Heart, infected mouse #2, 24 h pi) of 0.2 %DI/cm^3, an SPECT quantification ([2]; Heart, infected mouse #3, 0.5 h pi) of 1.0 %DI/cm^3 and an SPECT quantification ([2]; Heart, infected mouse #3, 3.5 h pi) of 1.0 %DI/cm^3. The SPECT quantification ([2]; Heart, infected mouse #3, 24 h pi) was 0.2 %DI/cm^3, the SPECT quantification ([2]; Intestine, infected mouse #2, 0.5 h pi) was 16.7 %DI/cm^3 and the SPECT quantification ([2]; Intestine, infected mouse #2, 3.5 h pi) was 13.8 %DI/cm^3. It also gave an SPECT quantification ([2]; Intestine, infected mouse #2, 24 h pi) of 0.5 %DI/cm^3, an SPECT quantification ([2]; Intestine, infected mouse #3, 0.5 h pi) of 3.8 %DI/cm^3 and an SPECT quantification ([2]; Intestine, infected mouse #3, 3.5 h pi) of 4.9 %DI/cm^3. It also gave an SPECT quantification ([2]; Intestine, infected mouse #3, 24 h pi) of 1.5 %DI/cm^3, an SPECT quantification ([2]; Lungs, infected mouse #2, 0.5 h pi) of 1.8 %DI/cm^3 and an SPECT quantification ([2]; Lungs, infected mouse #2, 3.5 h pi) of 1.5 %DI/cm^3. The SPECT quantification ([2]; Lungs, infected mouse #2, 24 h pi) was 0.1 %DI/cm^3, the SPECT quantification ([2]; Lungs, infected mouse #3, 0.5 h pi) was 0.6 %DI/cm^3 and the SPECT quantification ([2]; Lungs, infected mouse #3, 3.5 h pi) was 0.5 %DI/cm^3. The SPECT quantification ([2]; Lungs, infected mouse #3, 24 h pi) was 0.2 %DI/cm^3, the SPECT quantification ([2]; Mouth, infected mouse #2, 0.5 h pi) was 10.0 %DI/cm^3 and the SPECT quantification ([2]; Mouth, infected mouse #2, 3.5 h pi) was 8.4 %DI/cm^3. The SPECT quantification ([2]; Mouth, infected mouse #2, 24 h pi) was 4.7 %DI/cm^3, the SPECT quantification ([2]; Mouth, infected mouse #3, 0.5 h pi) was 10.5 %DI/cm^3 and the SPECT quantification ([2]; Mouth, infected mouse #3, 3.5 h pi) was 6.8 %DI/cm^3. The SPECT quantification ([2]; Mouth, infected mouse #3, 24 h pi) was 3.4 %DI/cm^3, the SPECT quantification ([2]; Neck ganglia, infected mouse #2, 0.5 h pi) was 8.5 %DI/cm^3 and the SPECT quantification ([2]; Neck ganglia, infected mouse #2, 3.5 h pi) was 9.5 %DI/cm^3. It also gave an SPECT quantification ([2]; Neck ganglia, infected mouse #2, 24 h pi) of 1.3 %DI/cm^3, an SPECT quantification ([2]; Neck ganglia, infected mouse #3, 0.5 h pi) of 4.0 %DI/cm^3 and an SPECT quantification ([2]; Neck ganglia, infected mouse #3, 3.5 h pi) of 5.0 %DI/cm^3. For the same molecule, the SPECT quantification ([2]; Neck ganglia, infected mouse #3, 24 h pi) was 1.1 %DI/cm^3, the SPECT quantification ([2]; Salivary glands, infected mouse #2, 0.5 h pi) was 16.7 %DI/cm^3 and the SPECT quantification ([2]; Salivary glands, infected mouse #2, 3.5 h pi) was 37.6 %DI/cm^3. The SPECT quantification ([2]; Salivary glands, infected mouse #2, 24 h pi) was 3.0 %DI/cm^3, the SPECT quantification ([2]; Salivary glands, infected mouse #3, 0.5 h pi) was 8.1 %DI/cm^3 and the SPECT quantification ([2]; Salivary glands, infected mouse #3, 3.5 h pi) was 20.3 %DI/cm^3. It also gave an SPECT quantification ([2]; Salivary glands, infected mouse #3, 24 h pi) of 3.3 %DI/cm^3, an SPECT quantification ([2]; Stomach, infected mouse #2, 0.5 h pi) of 12.1 %DI/cm^3 and an SPECT quantification ([2]; Stomach, infected mouse #2, 3.5 h pi) of 17.1 %DI/cm^3. The SPECT quantification ([2]; Stomach, infected mouse #2, 24 h pi) was 4.2 %DI/cm^3, the SPECT quantification ([2]; Stomach, infected mouse #3, 0.5 h pi) was 45.0 %DI/cm^3 and the SPECT quantification ([2]; Stomach, infected mouse #3, 3.5 h pi) was 42.7 %DI/cm^3. For the same molecule, the SPECT quantification ([2]; Stomach, infected mouse #3, 24 h pi) was 8.9 %DI/cm^3, the SPECT quantification ([2]; Thyroid, infected mouse #2, 0.5 h pi) was 28.9 %DI/cm^3 and the SPECT quantification ([2]; Thyroid, infected mouse #2, 3.5 h pi) was 18.8 %DI/cm^3. The SPECT quantification ([2]; Thyroid, infected mouse #2, 24 h pi) was 26.6 %DI/cm^3, the SPECT quantification ([2]; Thyroid, infected mouse #3, 0.5 h pi) was 4.1 %DI/cm^3 and the SPECT quantification ([2]; Thyroid, infected mouse #3, 3.5 h pi) was 9.9 %DI/cm^3. For the same molecule, the SPECT quantification ([2]; Thyroid, infected mouse #3, 24 h pi) was 29.5 %DI/cm^3, the “SPECT activity in neck ganglia” value ([2]; both infected mice, 24 h pi) was ~ 1% and the “SPECT activity in neck ganglia” value ([2]; infected mouse #2, 30 min pi) was 8.5 % ID/cm^3. The “SPECT activity in neck ganglia” value ([2]; infected mouse #2, 3.5 h pi) was 9.5 % ID/cm^3, the “SPECT activity in neck ganglia” value ([2]; infected mouse #3, 30 min pi) was 4 % ID/cm^3 and the “SPECT activity in neck ganglia” value ([2]; infected mouse #3, 3.5 h pi) was 5 % ID/cm^3. For the same molecule, the route of elimination ([2]; oral gavage of the radiotracer, mice) was “primarily through the urinary tract”.
For `CCc1nc(N)nc(N)c1-c1ccc(Cl)cc1` [pyrimethamine], the IC50 (Toxoplasma) is listed as 400 nM.
For FR235222, the “efficiency on parasite proliferation and ex vivo cyst formation” value (Toxoplasma gondii) is listed as “efficient in vitro”.
